For series [1], the target named is T1, hAMY1R (Homo sapiens, UniProt O60894+P30988).
T1 construct: expressed in transfected cells
Briefly: hAMY1R cAMP functional activity (HTRF). The note with it: ±SE; UMUC3 cells overexpressing hAMY1R; relative EC50. Type of series: cell-based. As to the method: (§1) The AMY1 and CT receptors are GPCRs that are functionally coupled to Gas proteins. […] In vitro activity of peptides is measured by the amount of cAMP formed in human AMY1R and CTR overexpressed cells.
Human AMY1R stable cell lines are generated by further transfecting human RAMP1-pCMVpuroPB (T14213) into UMUC3 hCTR clone cells. After selection, the mRNA levels human RAMP1 from different clones are measured to confirm the expression of human AMY1R.
(§2) hAMY1R cells are cultured in MEM 1× (Corning) supplemented with 10% FBS, 1% antibiotic/antimycotic solution, 1 mM sodium pyruvate, 1×MEM NEAA, 1× GlutaMAX-I, 200 μg/mL hygromycin B, and 0.4 μg/mL puromycin. The hCTR cells are cultured in the same medium lacking the puromycin. Cultured cells are grown to 70% confluency and then incubated overnight with fresh medium.
(§3) Peptides diluted in DMSO are added (200 nL/well) in a 1:3 dilution series using ECHO acoustic liquid handler (Beckman). Cultured cells are detached with TrypLE Express (Gibco), resuspended in assay buffer, and 10 μL containing 1200 cells/well (hCTR) or 1500 cells/well (hAMY1R) are dispensed into each well. The plates are incubated at room temperature for 1 hour.
(§4) The amount of intracellular cAMP is quantitated using HTRF technology (Homogeneous Time Resolved Fluorescence; Cisbio) as per vendor instructions. Briefly, 10 μL cAMP-d2 conjugate and 10 μL anti-cAMP-cryptate conjugate in lysis buffer are incubated with the treated cells at room temperature for 60 min. […] The raw data are converted to cAMP amount (pmol/well) using a cAMP standard curve generated for each experiment.

Another series deals with T2, human CT receptors (Homo sapiens, UniProt P30988).
T2 construct: expressed in transfected cells
T2 sequence (P30988 25-474): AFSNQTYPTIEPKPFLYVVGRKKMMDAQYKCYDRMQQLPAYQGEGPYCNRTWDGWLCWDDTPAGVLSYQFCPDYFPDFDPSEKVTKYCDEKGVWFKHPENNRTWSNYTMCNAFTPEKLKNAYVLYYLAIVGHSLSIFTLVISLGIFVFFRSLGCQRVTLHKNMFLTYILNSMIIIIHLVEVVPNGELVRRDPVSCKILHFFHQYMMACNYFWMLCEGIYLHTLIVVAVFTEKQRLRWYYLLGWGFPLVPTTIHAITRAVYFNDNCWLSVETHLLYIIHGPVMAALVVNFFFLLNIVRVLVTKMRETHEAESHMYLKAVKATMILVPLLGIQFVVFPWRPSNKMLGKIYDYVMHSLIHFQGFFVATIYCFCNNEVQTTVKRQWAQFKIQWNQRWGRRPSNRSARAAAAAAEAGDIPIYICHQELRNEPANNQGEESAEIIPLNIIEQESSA
The series can be described thus: hCTR cAMP functional activity (HTRF). The format is cell-based. The note with it: ±SE; UMUC3 cells overexpressing hCTR; relative EC50. Here is the method:
as §1
Human CT receptors are stably expressed in human urinary bladder cells (UM-UC-3, or UMUC3) under control of a pcDNA expression vector. […] After 20 days under selection, the mRNA levels from different clones are measured to confirm the expression of hCTR. To determine the function of over-expressed hCTR cells, the intracellular cAMP levels in response to salmon calcitonin are measured and compared to the expression of hCTR mRNA in each clone.
as §2, §3, §4
For orientation: Time-resolved FRET reads energy transfer from a long-lived donor to a nearby acceptor.

Series [2] concerns the target T1, hAMY1R. Briefly: hAMY1R competitive radioligand binding filter assay (125I-rAMY). The note with it: ± SE; membranes of hAMY1R overexpressing cells. As to the method:
The equilibrium dissociation constants (Kd) for the various receptor/radioligand interactions are determined from saturation binding analysis using the same reagents and buffers as described below for compound testing.
The receptor binding affinity (Ki) of rAMY, hCT, and hAMY agonist peptides are determined from a competitive radioligand binding filter assay. The assay buffer consists of (in mM) 50 HEPES, pH 7.1, 5 MgCl2, 5 KCl, 0.2% (w/v) bacitracin, 0.003% (w/v) saponin and is used to dilute radioligand and membrane preparation. Binding reactions are carried out in 0.1 mL total reaction volume in a polystyrene 96 deep-well assay block. […] Test compounds and non-specific binding (NSB—defined as 300 nM rAMY) are added to aliquots of radioactivity buffer. […] The binding reaction is initiated by the addition of 0.05 mL of 200 μg/mL hAMY1R diluted in assay buffer to the radioactivity. Assay blocks are gently vortexed, sealed with parafilm, and incubated at RT for approximately 20 hours. […] At the end of the incubation, bound ligand is separated from free by addition of an ice cold quench buffer consisting of 100 mM NaCl, 50 mM TRIS-HCl pH 7.1 and immediately collected over the filter mat by vacuum filtration with a TomTec 96 well filter harvester using the following filter protocol (Dry time, 7; Cycle 3 repeat, 0; Wash Time, 1; Soak Time, 1; 1st Aspirate Time, 4; Wash/Aspirate Time, 7; 2nd Aspirate, 4; air pressure 2 PSI).

A short description of series [3]: Pharmacokinetics in male cynomolgus monkeys. Type of series: in vivo. The note with it: single SC 20 nmol/kg, mean. As to the method: The pharmacokinetics of Compound II (SEQ ID NO:2), Compound IV (SEQ ID NO:4), Compound VI (SEQ ID NO:6), and Compound VIII (SEQ ID NO:8) are evaluated following a single subcutaneous administration of 20 nmol/kg to male cynomolgus monkeys. Blood samples are collected at 1, 3, 6, 12, 24, 48, 72, 120, 168, 240, 336, 408, 504 hours post SC dose. The resulting individual plasma concentrations are used to calculate pharmacokinetic parameters. Peptide plasma (K3EDTA) concentrations are determined using a qualified LC/MS method that measured the intact mass of the peptides. Each peptide and an analog as an internal standard are extracted from plasma. A high resolution Thermo Q-Exactive is used for LC/MS detection.

A further series relates to CD4+ T cells. The series can be described thus: T cell proliferation assay. The note with it: 7-10 donors with diverse MHC.
[4] abbreviates: male, cynomolgus monkey, plasma, n = 3.

The structures appear in SMILES notation. Starred links: 1 amine or outer side, 2 acyl side, 3 side chain; linkers in the order of their positions; H or OH if unused. Positions of bridges follow the written chain, without caps; N, C: chain ends. Non-standard residues stand in square brackets, D forms with d. Residues, ends and D or L forms follow the SMILES beside them. Groups on a side chain read outwards from the residue. *: point of attachment. C20 diacid = O=C(O)CCCCCCCCCCCCCCCCCCC(=O)*; γGlu = O=C(O)[C@H](CCC(=O)[*:2])N[*:1]; αMeF = C[C@](N)(Cc1ccccc1)C(=O)O; NMeD = CN[C@@H](CC(=O)O)C(=O)O; NMeN = CN[C@@H](CC(N)=O)C(=O)O; Orn = NCCC[C@H](N)C(=O)O; CH2 = C([*:1])[*:2]

By EC50 is commonly meant the concentration that produces a half-maximal response. Lower therefore signals greater potency. Usually Ki stands for the equilibrium dissociation constant of an inhibitor or competing ligand from its target. As usually defined, the Tmax is the time from dosing to the highest level. Broadly, the CL/F is the apparent clearance, not corrected for the fraction that reaches the circulation.

T1 sequence (O60894 27-148 partner, one chain of several): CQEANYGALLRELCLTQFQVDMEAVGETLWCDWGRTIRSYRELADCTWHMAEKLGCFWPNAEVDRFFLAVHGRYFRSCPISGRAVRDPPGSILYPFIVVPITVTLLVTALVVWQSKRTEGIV
Protocol for CD4+ T cells: This assay assesses the ability of tested antibodies or tested MAPPS peptides to activate CD4+ T cells by inducing cellular proliferation. CD8+ T cell depleted PBMC's are prepared and labeled with CFSE. Each sample is tested with media control, keyhole limpet haemocyanin (KLH; positive clinical benchmark control), tested antibodies, or tested MAPPS peptides. Cultures are incubated for 7 days. On day 7, samples are analyzed by flow cytometry.

`CC(C)C[C@H](NC(=O)[C@H](CCCN)NC(=O)CNC(=O)[C@@H](NC(=O)[C@H](C)NC(=O)[C@@H]1CSCSC[C@H](NC(=O)CC[C@H](N)C(=O)O)C(=O)N[C@@H](CC(N)=O)C(=O)N[C@@H]([C@@H](C)O)C(=O)N[C@@H](C)C(=O)N[C@@H]([C@@H](C)O)C(=O)N1)[C@@H](C)O)C(=O)N[C@@H](C)C(=O)N[C@@H](CCC(=O)O)C(=O)N[C@@](C)(Cc1ccccc1)C(=O)N[C@@H](CC(C)C)C(=O)N[C@H](C(=O)N[C@@H](CCCNC(=N)N)C(=O)N[C@@H](CO)C(=O)N[C@@H](CO)C(=O)N[C@@H](CC(N)=O)C(=O)N(C)[C@@H](CC(N)=O)C(=O)N[C@@H](Cc1ccccc1)C(=O)NCC(=O)N1CCC[C@H]1C(=O)N[C@@H](CCCCNC(=O)CC[C@H](NC(=O)CC[C@H](NC(=O)CCCCCCCCCCCCCCCCCCC(=O)O)C(=O)O)C(=O)O)C(=O)N[C@@H](CC(C)C)C(=O)N1CCC[C@H]1C(=O)N1CCC[C@H]1C(=O)N[C@H](C(=O)N[C@@H](CCC(=O)O)C(=O)N[C@H](C(=O)NCC(=O)N[C@@H](CO)C(=O)N[C@@H](CC(N)=O)C(=O)N[C@H](C(=O)N[C@@H](Cc1ccc(O)cc1)C(N)=O)[C@@H](C)O)C(C)C)[C@@H](C)O)C(C)C` [Compound II] (γGlu-CNTATCATG[Orn]LAE[αMeF]LVRSSN[NMeN]FGPK([γGlu-γGlu-C20 diacid])LPPTEVGSNTY-NH2; linker 1-6 via CH2) came in with a concentration giving a half-maximal response (EC50) on hAMY1R [1] of 0.075 ± 0.012 nM. This compound came in with an EC50 at human CT receptors of 2.34 ± 0.272 nM. The compound further showed an inhibitory constant (Ki) on hAMY1R [2] of 0.017 ± 0.006 nM. For the same compound, the Tmax in series [3] (setting [4]) is 64 ± 13.9 h. Moreover, in series [3] (n = 3), the AUCINF/D stood at 1752 ± 313 hr * kg * nmol/L/nmol and the Cmax/D worked out at 6.7 ± 1.0 kg * nmol/L/nmol. Also, in the series on CD4+ T cells, the “T Cell Proliferation Assay: protein, immunogenicity risk” value is “Low Risk” and the “T Cell Proliferation Assay: protein, positive donors” value is listed as “(0/9”.
`CC(C)C[C@H](NC(=O)[C@H](CCCN)NC(=O)CNC(=O)[C@@H](NC(=O)[C@H](C)NC(=O)[C@@H]1CSCSC[C@H](NC(=O)CC[C@H](N)C(=O)O)C(=O)N[C@@H](CC(N)=O)C(=O)N[C@@H]([C@@H](C)O)C(=O)N[C@@H](C)C(=O)N[C@@H]([C@@H](C)O)C(=O)N1)[C@@H](C)O)C(=O)N[C@@H](C)C(=O)N[C@@H](CCC(=O)O)C(=O)N[C@@](C)(Cc1ccccc1)C(=O)N[C@@H](CC(C)C)C(=O)N[C@H](C(=O)N[C@@H](CCCNC(=N)N)C(=O)N[C@@H](CO)C(=O)N[C@@H](CO)C(=O)N[C@@H](CC(N)=O)C(=O)N(C)[C@@H](CC(=O)O)C(=O)N[C@@H](Cc1ccccc1)C(=O)NCC(=O)N1CCC[C@H]1C(=O)N[C@@H](CCCCNC(=O)CC[C@H](NC(=O)CC[C@H](NC(=O)CCCCCCCCCCCCCCCCCCC(=O)O)C(=O)O)C(=O)O)C(=O)N[C@@H](CC(C)C)C(=O)N1CCC[C@H]1C(=O)N1CCC[C@H]1C(=O)N[C@H](C(=O)N[C@@H](CCC(=O)O)C(=O)N[C@H](C(=O)NCC(=O)N[C@@H](CO)C(=O)N[C@@H](CC(N)=O)C(=O)N[C@H](C(=O)N[C@@H](Cc1ccc(O)cc1)C(N)=O)[C@@H](C)O)C(C)C)[C@@H](C)O)C(C)C` [Compound IV, γE-CNTATCATG-Orn-LAE-αMeF-LVRSSN-NMeD-FGPKLPPTEVGSNTY-NH2] (γGlu-CNTATCATG[Orn]LAE[αMeF]LVRSSN[NMeD]FGPK([γGlu-γGlu-C20 diacid])LPPTEVGSNTY-NH2; linker 1-6 via CH2) yielded a concentration giving a half-maximal response (EC50) on hAMY1R [1] of 0.107 ± 0.016 nM. At human CT receptors, this compound yielded a concentration giving a half-maximal response (EC50) of 6.14 ± 0.764 nM. At hAMY1R [2], this compound showed a Ki of 0.0296 ± 0.0099 nM. Besides, in series [3] (setting [4]), the CL/F was 14.9 mL/day/kg and the time of peak concentration (Tmax) turned out to be 48 ± 24 h. Moreover, the half-life in series [3] (male, cynomolgus monkey, plasma, n = 3, read-out: T½ (converted)) was 177 ± 13.5 h. In series [3] (n = 3), this compound came in with an AUCINF/D of 1607 ± 104 hr * kg * nmol/L/nmol and a Cmax/D of 6.2 ± 1.0 kg * nmol/L/nmol. For the same compound, in the series on CD4+ T cells, the “T Cell Proliferation Assay: protein, immunogenicity risk” value is “Low Risk” and the “T Cell Proliferation Assay: protein, positive donors” value is “(0/9”.

The record behind these values is patent US12551532B2, “Long-acting amylin receptor agonists and uses thereof” (Eli Lilly and Company, priority 2021, dated 2026).
